IC50 data for 60 molecules are collected here from patent US20250171459A1, “2-METHYL-4',5'-DIHYDROSPIRO[PIPERIDINE-4,7'-THIENO[2,3-C]PYRAN] DERIVATIVES AS INHIBITORS OF APOL1 AND METHODS OF USING SAME” (Vertex Pharmaceuticals Incorporated, priority 2022, published 2025).

Some results are limits rather than exact numbers.

This test has as its target T1, APOL1 (Homo sapiens, UniProt O14791).
T1 sequence (O14791 1-398 S342G/I384M): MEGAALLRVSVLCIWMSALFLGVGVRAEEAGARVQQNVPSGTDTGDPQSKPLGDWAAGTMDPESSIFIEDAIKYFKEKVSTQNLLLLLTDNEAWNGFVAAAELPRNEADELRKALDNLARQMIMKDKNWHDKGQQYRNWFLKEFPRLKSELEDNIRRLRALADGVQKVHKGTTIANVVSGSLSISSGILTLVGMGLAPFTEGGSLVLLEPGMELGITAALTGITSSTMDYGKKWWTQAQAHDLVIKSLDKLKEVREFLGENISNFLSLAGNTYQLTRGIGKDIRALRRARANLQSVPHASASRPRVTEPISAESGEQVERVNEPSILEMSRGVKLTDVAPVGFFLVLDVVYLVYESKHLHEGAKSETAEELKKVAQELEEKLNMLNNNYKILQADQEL
As to the kind of experiment: MultiTox-Fluor Multiplex Cytotoxicity Assay in tet-inducible APOL1 T-REx-HEK293 cells (cell rescue, ratio of dead to live cells). In kind it is cell-based. Conditions: tet-inducible transgenic APOL1 T-REx-HEK293 cell lines, 50 ng/mL tet, 24 hours; read-out: IP50 (i.e., IC50 for cell proliferation). The method in brief: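 T-REx-HEK293 cells with tet-inducible APOL1 were treated with compound (10 μM top, 10-point 3-fold dilution, duplicate) plus 50 ng/mL tetracycline for 24 h at 37° C, in DMEM with 2% tet-free FBS. MultiTox-Fluor protease signals gave a dead/live ratio, normalized to no tet (100% viability) and tet alone (0%).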
With `C[C@H]1C[C@@]2(CCN1Cc1ncco1)OCCc1cc(CC(F)F)sc12` [Compound 580], the IC50 lay in the range of 100 to 500 nM.
The result for `CC(C)CN1CC[C@]2(C[C@@H]1C)OCCc1cc(CC(F)F)sc12` [Compound 581] reads 100 to 500 nM; that for `C[C@H]1C[C@@]2(CCN1CCC(F)(F)F)OCCc1cc(CC(F)F)sc12` [Compound 582], 500 to 1000 nM.
The result for `C[C@H]1C[C@@]2(CCN1CC1CCOC1)OCCc1cc(CC(F)F)sc12` (stereo partly drawn) [Compound 583] reads 100 to 500 nM; that for `Cc1cc(CN2CC[C@]3(C[C@@H]2C)OCCc2cc(CC(F)F)sc23)no1` [Compound 584], less than 100 nM; that for `C[C@H]1C[C@@]2(CCN1CC1(C)COC1)OCCc1cc(CC(F)F)sc12` [Compound 585], 100 to 500 nM.
The result for `C[C@H]1C[C@@]2(CCN1CC1CCCO1)OCCc1cc(CC(F)F)sc12` (stereo partly drawn) [Compound 586] reads 500 to 1000 nM; that for `C[C@H]1C[C@@]2(CCN1Cc1cncn1C)OCCc1cc(CC(F)F)sc12` [Compound 587], 100 to 500 nM.
`C[C@H]1C[C@@]2(CCN1Cc1cc(F)c[nH]c1=O)OCCc1cc(CC(F)F)sc12` [Compound 588]: the IC50 is 500 to 1000 nM.
In the case of `C[C@H]1C[C@@]2(CCN1Cc1ncccc1F)OCCc1cc(CC(F)F)sc12` [Compound 589], the IC50 lay within 500 to 1000 nM.
With `Cc1c[nH]c(=O)c(CN2CC[C@]3(C[C@@H]2C)OCCc2cc(CC(F)F)sc23)c1` [Compound 590] the figure was 500 to 1000 nM; with `C[C@H]1C[C@@]2(CCN1C1CC(O)C1)OCCc1cc(CC(F)F)sc12` (stereo partly drawn) [Compound 591], 500 to 1000 nM; with `C[C@H]1C[C@@]2(CCN1Cc1nccn1C)OCCc1cc(CC(F)F)sc12` [Compound 592], 500 to 1000 nM.
As to `COc1ncc(CN2CC[C@]3(C[C@@H]2C)OCCc2cc(CC(F)F)sc23)c(OC)n1` [Compound 593], the IC50 was less than 100 nM.
With `C[C@H]1C[C@@]2(CCN1CC(O)c1ccccc1)OCCc1cc(CC(F)F)sc12` (stereo partly drawn) [Compound 594, 2-[(2′S, 7R)-2-(2,2-difluoroethyl)-2′-methyl-spiro[4,5-dihydrothieno[2,3-c]pyran-7,4′-piperidine]-1′-yl]-1-phenyl-ethanol] the figure was less than 100 nM; with `C[C@H]1C[C@@]2(CCN1C1CCCC1O)OCCc1cc(CC(F)F)sc12` (stereo partly drawn) [Compound 595], less than 100 nM.
Regarding `C[C@H]1C[C@@]2(CCN1CC(O)C(N)=O)OCCc1cc(CC(F)F)sc12` (stereo partly drawn) [Compound 596], the IC50 was less than 100 nM.
With `C[C@H]1C[C@@]2(CCN1C1COCC1O)OCCc1cc(CC(F)F)sc12` (stereo partly drawn) [Compound 597] the figure was less than 100 nM.
The result for `C[C@H]1C[C@@]2(CCN1C[C@@H](O)CO)OCCc1cc(CC(F)F)sc12` [Compound 598] reads 100 to 500 nM; that for `C[C@H]1C[C@@]2(CCN1CCO)OCCc1cc(CC(F)F)sc12` [Compound 599], 100 to 500 nM; that for `C[C@H]1C[C@@]2(CCN1CC1(O)CCOCC1)OCCc1cc(CC(F)F)sc12` [Compound 600], 100 to 500 nM.
With `C[C@H]1C[C@@]2(CCN1CC(O)C(F)(F)F)OCCc1cc(CC(F)F)sc12` (stereo partly drawn) [Compound 601], the IC50 was less than 100 nM.
The result for `C[C@H]1C[C@@]2(CCN1CC(O)c1ccc(F)cc1)OCCc1cc(CC(F)F)sc12` (stereo partly drawn) [Compound 602] reads less than 100 nM; that for `C[C@H]1C[C@@]2(CCN1CC(C)(C)O)OCCc1cc(CC(F)F)sc12` [Compound 603], 100 to 500 nM; that for `C[C@H]1C[C@@]2(CCN1C1CCCC1O)OCCc1cc(CC(F)F)sc12` (stereo partly drawn) [Compound 604], 100 to 500 nM.
The result for `C[C@H]1C[C@@]2(CCN1CC(O)c1ccc(F)c(F)c1)OCCc1cc(CC(F)F)sc12` (stereo partly drawn) [Compound 605] reads 100 to 500 nM.
With `C[C@H]1C[C@@]2(CCN1CC1(O)CCS(=O)(=O)CC1)OCCc1cc(CC(F)F)sc12` [Compound 606] the figure was 100 to 500 nM; with `C[C@H]1C[C@@]2(CCN1C[C@H](O)CO)OCCc1cc(CC(F)F)sc12` [Compound 607], 100 to 500 nM; with `C[C@H]1C[C@@]2(CCN1C1COCC1O)OCCc1cc(CC(F)F)sc12` (stereo partly drawn) [Compound 609], less than 100 nM.
As for `C[C@H]1C[C@@]2(CCN1C[C@@H](O)C(N)=O)OCCc1cc(CC(F)F)sc12` [Compound 610, (2R)-3-[(2′S, 7R)-2-(2,2-difluoroethyl)-2′-methyl-spiro[4,5-dihydrothieno[2,3-c]pyran-7,4′-piperidine]-1′-yl]-2-hydroxy-propanamide], the IC50 is less than 100 nM.
The result for `C[C@H]1C[C@@]2(CCN1C[C@H](O)C(N)=O)OCCc1cc(CC(F)F)sc12` [Compound 611, (2S)-3-[(2′S, 7R)-2-(2,2-difluoroethyl)-2′-methyl-spiro[4,5-dihydrothieno[2,3-c]pyran-7,4′-piperidine]-1′-yl]-2-hydroxy-propanamide] reads less than 100 nM; that for `CNC(=O)[C@@H](O)CN1CC[C@]2(C[C@@H]1C)OCCc1cc(CC(F)F)sc12` [Compound 612, (2S)-3-[(2′S, 7R)-2-(2,2-difluoroethyl)-2′-methyl-spiro[4,5-dihydrothieno[2,3-c]pyran-7,4′-piperidine]-1′-yl]-2-hydroxy-N-methyl-propanamide], 100 to 500 nM; that for `CC(O)CN1CC[C@]2(C[C@@H]1C)OCCc1cc(CC(F)F)sc12` (stereo partly drawn) [Compound 613, 1-((2S,4R)-2′-(2,2-difluoroethyl)-2-methyl-4′,5′-dihydrospiro[piperidine-4,7′-thieno[2,3-c]pyran]-1-yl)propan-2-ol], 100 to 500 nM.
With `COCCN1CC[C@]2(C[C@@H]1C)OCCc1cc(CC(F)F)sc12` [Compound 614], the IC50 fell in the range of 100 to 500 nM.
With `C[C@H]1C[C@@]2(CCN1CCCO)OCCc1cc(CC(F)F)sc12` [Compound 615], the IC50 is 100 to 500 nM.
The result for `C[C@H]1C[C@@]2(CCN1CC(F)F)OCCc1cc(CC(F)F)sc12` [Compound 616] reads 500 to 1000 nM; that for `C[C@H]1C[C@@]2(CCN1CC1CC1(F)F)OCCc1cc(CC(F)F)sc12` (stereo partly drawn) [Compound 617], less than 100 nM; that for `Cc1nc(CN2CC[C@]3(C[C@@H]2C)OCCc2cc(CC(F)F)sc23)c(C)o1` [Compound 618], 500 to 1000 nM.
The result for `C[C@H]1C[C@@]2(CCN1CC1CCC(=O)N1)OCCc1cc(CC(F)F)sc12` (stereo partly drawn) [Compound 619] reads 100 to 500 nM; that for `C[C@H]1C[C@@]2(CCN1CCC(C)(C)O)OCCc1cc(CC(F)F)sc12` [Compound 620], 100 to 500 nM; that for `C[C@H]1C[C@@]2(CCN1CC1CNC(=O)C1)OCCc1cc(CC(F)F)sc12` (stereo partly drawn) [Compound 621], less than 100 nM.
The result for `C[C@H]1C[C@@]2(CCN1CC(N)=O)OCCc1cc(CC(F)F)sc12` [Compound 622] reads 500 to 1000 nM; that for `C[C@H]1C[C@@]2(CCN1CCN1CCCC1=O)OCCc1cc(CC(F)F)sc12` [Compound 623], 500 to 1000 nM.
Regarding `C[C@H]1C[C@@]2(CCN1CC(=O)N(C)C)OCCc1cc(CC(F)F)sc12` [Compound 624], the IC50 was 500 to 1000 nM.
The result for `C#CCN1CC[C@]2(C[C@@H]1C)OCCc1cc(Cl)sc12` [Compound 625, (2′S, 7R)-2-chloro-2′-methyl-1′-prop-2-ynyl-spiro[4,5-dihydrothieno[2,3-c]pyran-7,4′-piperidine]] reads 500 to 1000 nM.
With `C[C@H]1C[C@@]2(CCN1Cc1cn(CCO)nn1)OCCc1cc(Cl)sc12` [Compound 627], the IC50 fell in the range of 100 to 500 nM.
With `C[C@H]1C[C@@]2(CCN1Cc1cn(CC(CO)CO)nn1)OCCc1cc(Cl)sc12` [Compound 628], the IC50 was 100 to 500 nM.
The result for `C[C@H]1C[C@@]2(CCN1Cc1cn(CC(C)(CO)CO)nn1)OCCc1cc(Cl)sc12` [Compound 629] reads 100 to 500 nM.
With `C[C@H]1C[C@@]2(CCN1Cc1cnn(CCO)c1)OCCc1cc(Cl)sc12` [Compound 632] the figure was less than 100 nM; with `C[C@H]1C[C@@]2(CCN1Cc1cnn(CC3(C)COC3)c1)OCCc1cc(Cl)sc12` [Compound 633], less than 100 nM.
The result for `C[C@H]1C[C@@]2(CCN1Cc1cnn(CC(C)(CO)CO)c1)OCCc1cc(Cl)sc12` [Compound 634] reads less than 100 nM; that for `CC(=O)Nc1ccc(CN2CC[C@]3(C[C@@H]2C)OCCc2cc(Cl)sc23)cc1` [Compound 635], less than 100 nM.
`C[C@H]1C[C@@]2(CCN1Cc1ccc(N(CCO)CCO)cc1)OCCc1cc(Cl)sc12` [Compound 636]: the IC50 is less than 100 nM.
With `Cc1cn2nc(CN3CC[C@]4(C[C@@H]3C)OCCc3cc(Cl)sc34)cc2c(NC2CC2)n1` [Compound 637] the figure was less than 100 nM.
The result for `C[C@H]1C[C@@]2(CCN1Cc1ccc(NS(C)(=O)=O)cc1)OCCc1cc(Cl)sc12` [Compound 638] reads less than 100 nM.
For the molecule `C[C@H]1C[C@@]2(CCN1Cc1cccnc1)OCCc1cc(Cl)sc12` [Compound 639], the IC50 is less than 100 nM.
With `COCCc1ncc(CN2CC[C@]3(C[C@@H]2C)OCCc2cc(Cl)sc23)cn1` [Compound 640] the figure was 100 to 500 nM.
As for `C[C@H]1C[C@@]2(CCN1Cc1cccc(NS(C)(=O)=O)c1)OCCc1cc(Cl)sc12` [Compound 641], the IC50 was 100 to 500 nM.
`C[C@H]1C[C@@]2(CCN1CCCn1cccn1)OCCc1cc(Cl)sc12` [Compound 642]: the IC50 fell in the range of 500 to 1000 nM.
The result for `CC(O)CCN1CC[C@]2(C[C@@H]1C)OCCc1cc(Cl)sc12` (stereo partly drawn) [Compound 643] reads 500 to 1000 nM.
